{"source": "patent US20250281462A1", "about": "“THERAPEUTICALLY EFFECTIVE ORAL ADMINISTRATION OF A 2 ARYLBENZIMIDAZOLE” (Tranquis Therapeutics, Inc., priority 2021, published 2025)", "key": {"TNFα [1]": {"tested_on": "TNFα", "assay": "TNFα release by LPS-stimulated BV2 cells (ELISA)", "type": "cell-based, murine", "description": "First, 100 μL of supernatant was removed from Cell Plate and transferred to a Dilution Plate, which was then centrifuged at 216×g for 10 minutes to remove particulates. The dilution plate was either assayed immediately or aliquots were taken and stored at ≤−20° C.; repeated freeze-thaw cycles were avoided.\nNext, a standard curve was prepared by first pipetting 900 ul of Calibrator Diluent RD5K into the […] tube, followed by 200 μl of the appropriate calibrator diluent in the remaining tubes. The stock solution was used to produce a dilution. The resulting tubes were then thoroughly mixed. The Mouse TNFα Standard ([…]) served as the high standard, and the Calibrator Diluent RD5T served as the zero standard at 0 pg/ml.\nAssay Diluent RD1-63 (50 uL) was then added to the center of each well and mixed before and during its use. Then, 50 ul of either standard, control, or sample was added to the center of each well, and covered with adhesive strip. […]\nSubstrate solution (100 uL) was then added to each well, incubated in the dark for 30 minutes at room temperature, followed by addition of 100 μl of Stop Solution and mixed. The optical density of each well was determined within 30 minutes by using a microplate reader set to 450 nm.\nPlates were read on a Spectrostar Nano machine with built-in MARS data analysis at […] and 570 nM. […]"}, "Ppargc1α (PGC-1α)": {"tested_on": "Ppargc1α (PGC-1α)", "details": "Zhang et al., Diabetes 62:1297-1307 (2013); cited from earlier work"}, "IL-6": {"tested_on": "IL-6", "assay": "LPS-induced IL-6 secretion from BV2 cells (CBA assay)", "type": "cell-based, murine", "details": "1-20 μM", "description": "Lipopolysaccharide (LPS) is a natural ligand of the TLR4/CD14 complex, which is highly expressed on myeloid cells\nLPS was used to induce cytokine secretion from BV-2 cells. Cells were incubated with TQS-168 at various concentrations to assess whether TQS-168 could suppress the LPS-promoted release of various cytokines from in vitro cell cultures. Cytokine secretion was measured by cytometric bead array (CBA) fluorescence-activated cell sorting (FACS).\nBriefly, a vial of BV2 frozen stock (1 million cells per ml in complete medium) was thawed into 10 mL of complete medium per vial for a total of 4 vials. The vials were then centrifuged at 1800 rpm for 3 minutes to wash away freezing media. The four vials were then pooled into 25 mL of complete medium. TQS-168 was prepared in DMSO.\nCells were incubated for 24 hours in the presence of medium (negative control), LPS (positive control), DMSO+LPS (positive control, controlling additionally for presence of DMSO in the TQS-168 stock solution), or LPS+TQS-168 at final concentrations of 1 μM, 5 μM, 10 μM, and 20 μM.\nAfter the well plates were incubated overnight for 24 hours, they were centrifuged at 1800 rpm for 5 minutes. Next, 150 μl from each well was transferred to a new set of plates, of which 50 μl was used for CBA. […]"}, "[2]": {"assay": "Plasma and brain concentrations after single oral dose in rats", "type": "in vivo", "details": "both sexes, Sprague-Dawley, rat, rats plasma, suspension; for AUC(0-t): plasma, po", "description": "Both male (n=3) and female (n=3) Sprague-Dawley rats were administered a single dose of TQS-168 by oral gavage at 50, 150, or 500 mg/kg of TQS-168. TQS-168 was prepared as a suspension with 0.5% methylcellulose in PBS.\nPlasma samples were collected at 30, 60, 120, 240, and 1440 minutes after administration. Brain samples were collected in some animals at 60, 240, and 1440 minutes after the single oral dose of TQS-168 at 500 mg/kg. Samples were processed for LC-MS analysis of TQS-168 concentrations.\nCmax and AUC0-t values from the plasma tissues were calculated using PKSolver (Compute Methods Programs Biomed. 2010 September; 99(3):306-14. doi: 10.1016j.cmpb.2010.01.007. Epub 2010 Feb. 21) with the underlying data plotted FIG. 12a."}, "TNFα [3]": {"tested_on": "TNFα", "assay": "LPS-stimulated TNFα secretion from human PBMCs (ELISA)", "type": "cell-based", "details": "LPS 1 ng/mL, 24 h", "description": "The principal metabolites from liver metabolism of TQS-168 following oral administration have been described. See Sun et al., Rapid Commun. Mass Spectrom. 32:480-488 (2018), incorporated herein by reference. We synthesized the phase 1 metabolites from liver metabolism of TQS-168 illustrated in FIG. 20 and tested them for the ability to inhibit LPS-stimulated secretion of pro-inflammatory cytokines in vitro.\nBriefly, 20,000 human PBMC were aliquoted into each well. LPS was added at 1 ng/mL and the cells incubated for 24 h in the presence of LPS and TQS-168 or one of its metabolites. Readouts were human IL-6 ELISA and human TNFα ELISA. For assay, supernatants were diluted in culture medium. The supernatant dilution for the IL-6 ELISA was 1:8, and the 1:2 for the human TNFα ELISA."}}, "note": "Entries after “also recorded” stand apart in the source; their conditions may differ.", "data": [{"smiles": "CC(C)(C)c1ccc(-c2nc3ccccc3[nH]2)cc1", "note": "[TQS-168, 2-(4-tert-butylphenyl)-1H-benzimidazole]", "values": [{"measurement": "suppression of TNFα production", "setting": "TNFα [1]; BV-2 cells, 0.3 ng/mL LPS, 10 μM TQS-168, ELISA, 24 hours", "value": "about 25%"}, {"measurement": "inhibition at 10 µM", "setting": "TNFα [1]; Mus musculus, BV-2, 24 h, read-out: inhibition of TNFα production", "value": "~35", "unit": "%"}, {"measurement": "effect on Ppargc1α (PGC-1α) gene expression", "setting": "Ppargc1α (PGC-1α)", "value": "activator"}, {"measurement": "reduction of LPS-induced IL-6 secretion, dose response", "setting": "IL-6", "value": "concentration-dependent; also recorded: dose-responsive inhibition"}, {"measurement": "AUC(0-t)", "setting": "[2]; 50 mg/kg, 50 mg/kg single oral dose", "value": 833, "unit": "ng·h/mL"}, {"measurement": "AUC(0-t)", "setting": "[2]; 150 mg/kg, 150 mg/kg single oral dose", "value": 1830, "unit": "ng·h/mL"}, {"measurement": "AUC(0-t)", "setting": "[2]; 500 mg/kg, 500 mg/kg single oral dose", "value": 3330, "unit": "ng·h/mL"}, {"measurement": "Cmax", "setting": "[2]; 50 mg/kg single oral dose", "value": 60, "unit": "ng/mL"}, {"measurement": "Cmax", "setting": "[2]; 150 mg/kg single oral dose", "value": 120, "unit": "ng/mL"}, {"measurement": "Cmax", "setting": "[2]; 500 mg/kg single oral dose", "value": 170, "unit": "ng/mL"}]}, {"smiles": "CC(C)(C)c1ccc(-c2nc3cc(O)ccc3[nH]2)cc1", "note": "[TQS-621]", "values": [{"measurement": "inhibition of LPS-stimulated TNFα secretion", "setting": "TNFα [3]", "value": "potently inhibits; also recorded: potent inhibitor"}]}]}
